In patent publication US20250257060A1, “OXADIAZOLE COMPOUND, PHARMACEUTICAL COMPOSITION COMPRISING SAME, AND USE THEREOF” (SUZHOU GENHOUSE BIO CO., LTD., priority 2022, published 2025):
Where two headings read alike, the source gives them in different places.

Tests used:
HDAC6 = HDAC6 (Homo sapiens (Human), UniProt Q9UBN7); assay: HDAC6 enzymatic activity assay; type: biochemical
Summary of the method: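 Recombinant HDAC6 with compound and Ac-GAK(Ac)-AMC substrate ([…]), 37° C. for 30 min, then developed with trypsin plus TSA for 15 min at room temperature. IC50 from curve fitting.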

HDAC1 = HDAC1 (Homo sapiens (Human), UniProt Q13547); assay: HDAC subtype enzymatic activity assay, HDAC1; type: biochemical; conditions: read-out: HADC1 Inhibition rate (%)
Sequence of HDAC1 (Q13547 whole entry): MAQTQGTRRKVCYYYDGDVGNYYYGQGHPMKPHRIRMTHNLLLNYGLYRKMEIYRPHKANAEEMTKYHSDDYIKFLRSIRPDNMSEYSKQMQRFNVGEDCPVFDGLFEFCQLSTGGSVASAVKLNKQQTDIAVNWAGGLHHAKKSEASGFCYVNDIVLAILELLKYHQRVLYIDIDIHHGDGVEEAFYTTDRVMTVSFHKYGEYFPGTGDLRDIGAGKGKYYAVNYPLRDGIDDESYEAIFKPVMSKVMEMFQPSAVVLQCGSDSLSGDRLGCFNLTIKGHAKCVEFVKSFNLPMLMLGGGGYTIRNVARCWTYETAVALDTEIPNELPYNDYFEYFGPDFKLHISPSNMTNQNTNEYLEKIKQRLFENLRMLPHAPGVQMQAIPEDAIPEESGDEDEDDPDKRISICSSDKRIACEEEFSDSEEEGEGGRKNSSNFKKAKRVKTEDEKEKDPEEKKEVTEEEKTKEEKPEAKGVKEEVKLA
Protocol: The inhibitory activity of the compounds of the present application on HDAC1-5 and 7-11 was evaluated by an enzymatic activity assay.
1 M Trypsin and 10 M TSA were added, and the plate was incubated at room temperature for 15 min. […] IC50 was obtained by fitting using GraphPadPrism 7.0 software.

[1] = test system: acetylation level of α-tubulin in A375 cells; assay: Assay on acetylation level of α-tubulin, A375 cells; type: cell-based; conditions: Homo sapiens, A-375, 6 h
Protocol: (§1) A375/HCT116/HCC827 cells at a logarithmic growth phase were taken, digested with a […] (trypsin), centrifuged, counted, and plated in a 96-well plate at an appropriate cell density (30,000 cells/well) at 100 µL/well, and an appropriate amount of PBS was added around the plate for water sealing. The next day, the cells were treated with the compounds at different concentrations (starting at 100 μM, 5-fold dilution, 9 concentration gradients). After 6 h, the medium was pipetted out and the cells were washed twice with 100 μL of PBST. The cells were then immobilized in 4% paraformaldehyde, and the plate was incubated at room temperature for 20 min. The stationary liquid was discarded and the cells were washed with PBST. 150 μL of special blocking buffer (containing 1% Triton-100) was added to each well for blocking at room temperature for 2 h, and the plate was washed with PBS to remove excess blocking buffer. α-tubulin (DM1A) mouse mAb and acetyl-α-tubulin (Lys40) (D20G3) XP rabbit mAb were diluted at a 1:2000 ratio with a blocking buffer containing 0.033% Triton-100. The dilutions were added to the 96-well plate and the plate was incubated overnight at 4° C. Meanwhile, a blank control group was set. The next day, the plate was washed twice with PBST. […] Fluorescence signals at 700 nm and 800 nm were detected with a Li-COR Odyssey two-color near-infrared laser imager.

[2] = test system: acetylation level of α-tubulin in HCC827 cells; assay: Assay on acetylation level of α-tubulin, HCC827 cells; type: cell-based; conditions: Homo sapiens, 6 h
Protocol: as §1

[3] = Brain-to-blood drug concentration ratio of mice; type: in vivo; conditions: mouse; for Kp at 1 h / Kp at 4 h: brain/plasma
Summary of the method: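 Mice (9/group) dosed once IV or PO; orbital blood into K2-EDTA tubes for plasma, with brain homogenate, processed by acetonitrile precipitation (propafenone internal standard) and measured by LC-MS/MS. Ratio taken as brain tissue concentration over plasma concentration at the same time point.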

[4] = brain, 2 mg/kg IV, read-out: Brain drug concentration
[5] = brain, 10 mg/kg PO, read-out: Brain drug concentration
[6] = plasma, 2 mg/kg IV, read-out: Blood drug concentration
[7] = plasma, 10 mg/kg PO, read-out: Blood drug concentration

Sequence of HDAC6 (Q9UBN7 whole entry): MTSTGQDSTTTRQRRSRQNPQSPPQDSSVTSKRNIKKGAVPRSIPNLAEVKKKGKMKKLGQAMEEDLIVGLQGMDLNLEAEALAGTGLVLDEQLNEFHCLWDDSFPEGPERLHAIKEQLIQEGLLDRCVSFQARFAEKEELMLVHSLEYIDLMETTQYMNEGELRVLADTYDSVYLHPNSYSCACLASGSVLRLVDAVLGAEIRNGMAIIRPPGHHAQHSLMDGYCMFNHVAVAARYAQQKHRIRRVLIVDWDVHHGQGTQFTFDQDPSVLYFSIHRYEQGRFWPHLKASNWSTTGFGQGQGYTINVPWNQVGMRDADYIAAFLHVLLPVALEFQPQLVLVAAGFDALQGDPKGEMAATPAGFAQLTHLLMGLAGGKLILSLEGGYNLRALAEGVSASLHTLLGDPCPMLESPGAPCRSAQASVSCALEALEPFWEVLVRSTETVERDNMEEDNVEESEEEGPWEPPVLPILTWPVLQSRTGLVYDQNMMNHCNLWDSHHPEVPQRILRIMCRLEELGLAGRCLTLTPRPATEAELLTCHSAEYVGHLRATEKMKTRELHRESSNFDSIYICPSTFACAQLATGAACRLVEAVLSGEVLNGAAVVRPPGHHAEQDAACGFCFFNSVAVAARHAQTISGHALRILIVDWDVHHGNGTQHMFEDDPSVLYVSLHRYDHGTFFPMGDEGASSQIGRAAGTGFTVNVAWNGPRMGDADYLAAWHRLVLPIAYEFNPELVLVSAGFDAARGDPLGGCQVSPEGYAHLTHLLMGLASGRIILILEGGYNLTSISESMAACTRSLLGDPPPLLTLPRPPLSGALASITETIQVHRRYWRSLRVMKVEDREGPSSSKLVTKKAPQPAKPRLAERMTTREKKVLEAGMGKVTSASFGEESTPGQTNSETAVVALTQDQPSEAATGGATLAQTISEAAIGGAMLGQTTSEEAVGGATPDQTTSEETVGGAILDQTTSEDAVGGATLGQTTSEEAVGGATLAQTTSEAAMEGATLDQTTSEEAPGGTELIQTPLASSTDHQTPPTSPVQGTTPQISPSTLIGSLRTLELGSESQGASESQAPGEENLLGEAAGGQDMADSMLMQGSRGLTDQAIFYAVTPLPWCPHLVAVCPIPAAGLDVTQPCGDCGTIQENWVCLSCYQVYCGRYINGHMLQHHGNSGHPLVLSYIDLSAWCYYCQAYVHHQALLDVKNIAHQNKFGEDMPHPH

inhibition at 1 µM (HDAC1; 1 μM) [%] | inhibition at 10 µM (HDAC1; 10 μM) [%] | Structure (SMILES) | IC50 (HDAC6) [nM] | EC50 [1] [nM] | EC50 [2] [nM] | concentration at 1 h [3, 4] [ng/mL] | concentration at 4 h [3, 4] [ng/mL] | concentration at 1 h [3, 5] [ng/mL] | concentration at 4 h [3, 5] [ng/mL] | Kp at 1 h ([3]; 2 mg/kg IV) | Kp at 4 h ([3]; 2 mg/kg IV) | Kp at 1 h ([3]; 10 mg/kg PO) | Kp at 4 h ([3]; 10 mg/kg PO) | concentration at 1 h [3, 6] [ng/mL] | concentration at 4 h [3, 6] [ng/mL] | concentration at 1 h [3, 7] [ng/mL] | concentration at 4 h [3, 7] [ng/mL] | inhibition at 1 µM (HDAC1) [%] | inhibition at 10 µM (HDAC1) [%]
8.57 | -3.17 | CC(F)(F)C(=O)N[C@@H]1CCCC[C@H]1N1Cc2ccc(-c3nnc(C(F)F)o3)cc2S1(=O)=O [Compound 1] | 59 | 393 ± 192 | 338 | 285 | 161 | 759 | 373 | 0.29 | 0.36 | 0.18 | 0.15 | 986 | 453 | 4270 | 2500 | – | –
– | – | O=C(N[C@@H]1CCCC[C@H]1N1Cc2ccc(-c3nnc(C(F)F)o3)cc2S1(=O)=O)C(F)F [Compound 2] | – | 202 ± 115 | 288 ± 49.3 | 268 | 149 | 882 | 435 | 0.26 | 0.25 | 0.18 | 0.15 | 1090 | 595 | 4990 | 2830 | -11.9 | -3.91
– | – | O=C(N[C@H]1[C@H](N2Cc3ccc(-c4nnc(C(F)F)o4)cc3S2(=O)=O)CCCC1(F)F)C(F)F [Compound 61] | 63 | – | – | – | – | – | – | – | – | – | – | – | – | – | – | – | –
